Data taken from patent US12097181B2, “Swine maternal neonatal pheromone” (Texas Tech University System, priority 2019, dated 2024).
Entries after “also recorded” stand apart in the source; their conditions may differ.

Test system: piglets
Test: Preference test: piglet preference for feeders sprayed with maternal semiochemicals
Assay type: in vivo, Swine (Sus scrofa)
Details: for overall preference index (PI) / percentage of time piglets spent interacting with the feeder: feeder sprayed with 5 mL testing solution (4.5 mg skatole and/or 9.0 mg myristic acid) vs mineral oil control feeder, litters 7±2 d of age, two 5-h test days; for piglet preference or aversion for sprayed feeder compared to control: feeder sprayed with testing solution vs mineral oil control
Method: Piglets used in this study were from a terminal cross between PIC Camborough genetic line sows and a terminal sire. Litters were housed in conventional slatted floor farrowing crates (1.52 m×2.13 m). All piglets were ear notched, teeth clipped, and injected with iron at 3 days of age. During this day, all males within a litter were also castrated by farm personnel. Prior to the study, piglets had no creep feeder. The preference test was performed in their home farrowing crate. Preference tests were conducted to determine piglet preference for skatole and myristic acid. First, nine litters (105 piglets) were used to evaluate piglet preference toward a solution containing both, skatole and myristic acid (N=9). Once piglet preference for a solution containing both molecules was determined, 8 litters (79 piglets) were used to evaluate piglet preference for skatole (N=8) and another 8 litters (80 piglets) to evaluate piglet preference for myristic acid (N=8) individually. Each litter was tested only once to ensure that piglets were tested at the same age and that they were not previously exposed to a feeder or a semiochemical.
At 7±2 days of age, two three-hole galvanized steel baby pig feeders were placed at each front corner of the farrowing crate for five hours for two consecutive days (FIG. 6). […] The sow was present during each five hours trial. Each feeder contained 100 g of pig pre-starter (MoorMan's ShowTec Prestarter, ADM, Quincy, IL) and was sprayed with either 5 mL of mineral oil (control) or 5 mL of the testing solution. The solution was sprayed on the feeder and not the feed. The 5 mL of the testing solution contained 4.5 mg of skatole and/or 9.0 mg of myristic acid. This concentration was selected based on the estimated concentration of each analyte in 150 g of lactating sow faeces based on GC/MS analysis. On the second testing day, feeder locations were switched to correct for side biases. A single observer following a 30 second scan sampling method, observed the behavior of each piglet in the litter at 30 second intervals to determine the percentage of time piglets spent interacting with each feeder during the five-hour period each testing day. A total of 600 observations were recorded per litter in each testing day. The percentage of time piglets within a litter spent interacting with each feeder was calculated by dividing the number of time piglets were observed interacting with a feeder over the total number of observations. Interacting with the feeder was defined as when piglets were sniffing, touching or licking the area of the feeder sprayed with the solution or eating or rooting the feed. A preference index was calculated for each feeder by dividing the amount of time piglets were observed interacting with a feeder by the sum of the number of times piglets were observed interacting with both feeders.
For each litter (experimental unit), an overall feed intake, preference index, and percentage of time interacted with each feeder was obtained from both testing days. Difference in overall feed intake, preference index, and percentage of time piglets spent interacting with the control and the feeder sprayed with the testing solutions were analyzed using the Wilcoxon-singed ranked test. […] All statistical analyses were performed using SAS 9.4. (SAS Inst., Inc., Cary, NC). A statistically significant difference was based on a P value≤0.05.

Row | Structure (SMILES) | overall preference index (PI) | percentage of time piglets spent interacting with the feeder [%] | piglet preference or aversion for sprayed feeder compared to control
1 | CCCCCCCCCCCCCC(=O)O [Myristic acid, Tetradecanoic acid] | 0.47 | 0.48 | No preference or aversion; also recorded: No preference
2 | Cc1c[nH]c2ccccc12 [Skatole, 3-methylindole] | 0.51 | 0.54 | No preference or aversion; also recorded: No preference
